Reference: patent publication US11584714B2 (priority 2018, dated 2023)
Where a name gives a salt, the structure may show the parent alone. Read-outs that look alike come from different tables or passages of the source.

What was measured:
[1] = target: human α-thrombin (Homo sapiens (Human), UniProt P00734); experiment: Enzymatic assay for thrombin (Boc-VPR-AMC substrate); format: biochemical
[2] = target: MASP-2 (CCP1-CCP2-SP) (Homo sapiens (Human), UniProt O00187); experiment: biochemical; format: biochemical; conditions: for MASP-2 vs. thrombin selectivity: MASP-2 inhibition versus thrombin
Chain of MASP-2 (CCP1-CCP2-SP) (O00187 445-686): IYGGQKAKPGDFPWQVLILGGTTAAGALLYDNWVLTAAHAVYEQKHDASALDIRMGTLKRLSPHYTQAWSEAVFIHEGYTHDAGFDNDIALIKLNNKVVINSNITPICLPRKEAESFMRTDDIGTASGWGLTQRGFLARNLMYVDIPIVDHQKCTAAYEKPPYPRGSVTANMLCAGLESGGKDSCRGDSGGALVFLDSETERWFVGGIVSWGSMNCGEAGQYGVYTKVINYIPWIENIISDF

| SMILES | Ki ([1]; read-out: Thrombin Ki) [µM] | MASP-2 vs. thrombin selectivity [2] | Ki ([2]; read-out: MASP-2 Ki) [nM] | further results |
| --- | --- | --- | --- | --- |
| C[C@H](NC(=O)[C@H](N)CCc1cccc(C(F)(F)F)c1)C(=O)NCc1ccc(C(=N)N)cc1 [compound 1120] | < 0.5 | ** (5.0 to 25-fold) | < 500 |  |
| C[C@H](NC(=O)[C@@H](CCc1ccccc1)NC1CCCCC1)C(=O)NCc1ccc(C(=N)N)cc1 [compound 1130, (R)—N—((S)-1-((4-Carbamimidoylbenzyl)amino)-1-oxopropan-2-yl)-2-(cyclohexylamino)-4-phenylbutanamide Dihydrochloride] | < 0.5 | −− (less than 1.0-fold) | < 500 |  |
| C[C@H](NC(=O)[C@H](N)CCc1ccccc1F)C(=O)NCc1ccc(C(=N)N)cc1 [compound 1049] | < 0.5 | ** (5.0 to 25-fold) | < 500 |  |
| N=C(N)c1ccc(CNC(=O)[C@@H]2CCCN2C(=O)[C@H](N)C2CCCCC2)cc1 [compound 1027] | < 0.5 | −− (less than 1.0-fold) | < 500 |  |
| COC(=O)COc1ccc(CN[C@H](CCc2ccccc2)C(=O)N[C@@H](C)C(=O)NCc2ccc(C(=N)N)cc2)cc1 [compound 1151] | < 0.5 | −− (less than 1.0-fold) | < 500 |  |
| CCc1cccc(-c2nc3cc(C(=N)N)ccc3[nH]2)n1 [compound 2008, 2-(6-ethylpyridin-2-yl)-1H-benzo[d]imidazole-5-carboximidamide dihydrochloride] |  |  |  | Ki ([1]; +Zn, read-out: Thrombin Ki): < 10 µM; Ki ([1]; Thrombin Ki (μM), +EDTA): > 25 µM; Ki [2]: > 25000 nM; MASP-2 versus thrombin selectivity ([2]; +Zn): +++ (+Zn) (25 to 100-fold); Ki ([2]; +Zn, read-out: MASP-2 Ki): < 500 nM |
| N=C(N)c1ccc(CNC(=O)[C@@H]2CCN2C(=O)[C@@H](CCc2ccccc2)NCC(=O)O)cc1 [compound 1124] | < 0.5 | −− (less than 1.0-fold) | < 500 |  |
| N=C(N)c1ccc(CNC(=O)[C@@H]2CCN2C(=O)[C@H](N)C2CC2)cc1 [compound 1002, (S)-1-((R)-2-Amino-2-cyclopropylacetyl)-N-(4-carbamimidoylbenzyl)azetidine-2-carboxamide] | < 0.5 |  |  |  |
| CN(CC(=O)NCc1ccc(C(=N)N)cc1)C(=O)[C@H](NCC(=O)O)C1CCCCC1 [compound 1096] | < 0.5 |  |  |  |
| CC[C@H](NC(=O)[C@H](NCC(=O)O)C1CCCCC1)C(=O)NCc1ccc(C(=N)N)cc1 [compound 1106] | < 0.5 |  |  |  |
| C[C@H](NC(=O)[C@H]1C[C@@H](c2ccccc2)CN1)C(=O)NCc1ccc(N)nc1 [compound 1255, (2R,4S)—N—((S)-1-(((6-Aminopyridin-3-yl)methyl)amino)-1-oxopropan-2-yl)-4-phenylpyrrolidine-2-carboxamide] | > 25 |  |  |  |
| C[C@H](NC(=O)[C@H](N)CCc1ccccc1)C(=O)NCc1ccc(CN)cc1 [compound 1014] | > 25 |  |  |  |
| CC(C)(C)OC(=O)N[C@@H](C(=O)N1CCC[C@H]1C(=O)NCc1ccc(C(=N)N)cc1)C1CCCCC1 [compound 1138] | < 0.5 |  |  |  |
| N=C(N)c1ccc(CNC(=O)[C@@H]2CCN2C(=O)[C@H](N)CC2CCCCC2)cc1 [compound 1158] | < 0.5 |  |  |  |
| N=C(N)c1ccc(CNC(=O)[C@@H]2CCN2C(=O)[C@H](NCC(N)=O)C2CCCCC2)cc1 [compound 1102, (S)-1-((R)-2-((2-amino-2-oxoethyl)amino)-2-cyclohexylacetyl)-N-(4-carbamimidoylbenzyl)azetidine-2-carboxamide] | < 0.5 |  |  |  |
| Cc1nc(N)ccc1CNC(=O)[C@H](C)NC(=O)[C@H]1C[C@@H](c2cccc(CN)c2)CN1 [compound 1291, (2R,4S)—N—((S)-1-(((6-Amino-2-methylpyridin-3-yl)methyl)amino)-1-oxopropan-2-yl)-4-(3-(aminomethyl)phenyl)pyrrolidine-2-carboxamide] | > 25 |  |  |  |
| N=C(N)c1ccc(CNC(=O)Cn2c(=O)n(Cc3ccccc3)c(=O)c3ccc(C(=O)NC4CCCCC4)cc32)cc1 [compound 2021, 3-Benzyl-1-(2-((4-carbamimidoylbenzyl)amino)-2-oxoethyl)-N-cyclohexyl-2,4-dioxo-1,2,3,4-tetrahydroquinazoline-7-carboxamide] |  |  |  | Ki ([1]; Zn/EDTA condition not given, read-out: Thrombin Ki): > 25 µM |
